Measurements published in paper PMC8105722 (The Journal of Experimental Medicine, 2021).

Target: Rv0812 (Mycobacterium tuberculosis, UniProt Q79FW0)
Sequence (Q79FW0 whole entry): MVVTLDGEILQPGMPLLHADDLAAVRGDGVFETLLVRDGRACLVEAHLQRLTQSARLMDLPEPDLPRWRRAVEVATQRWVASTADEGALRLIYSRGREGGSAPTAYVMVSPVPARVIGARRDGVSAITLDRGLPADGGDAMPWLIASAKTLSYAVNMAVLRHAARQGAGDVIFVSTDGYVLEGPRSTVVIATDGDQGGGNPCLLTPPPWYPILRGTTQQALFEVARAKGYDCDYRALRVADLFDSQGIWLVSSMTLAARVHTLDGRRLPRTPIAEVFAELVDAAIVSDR

Cc1ncc(COP(=O)(O)O)c(C=O)c1O [PLP]
X-ray crystal structure (cocrystal with 0.2 mM PLP): PLP was fit into the corresponding electron density
